According to paper PMC12606464, “Investigating NFE2L1 activators for targeted protein aggregate clearance: a follow-up study” (RSC Medicinal Chemistry, 2025):

How the values were obtained:
[1] = test system: SH-SY5Y cells; test: Rotenone-induced α-synuclein proteotoxicity in SH-SY5Y cells; format: cell-based, human; conditions: SH-SY5Y expressing α-synuclein-GFP; pre-treatment 4 h (0.312-2.5 μM), rotenone 1.125 μM 24 h; approximately 30% without compounds
Description: Fig. 3 (A) HEK293 cells were treated with RUN compounds at a concentration of 7.5 μM for 16 hours. DMSO was used as a vehicle control. Proteasome chymotrypsin-like activity was measured in cell lysates at 37 °C. Data came from three biological replicates (n = 3). Statistical analysis was done using ratio paired t-tests corrected for multiple comparisons with Holm–Šídák's method (α = 0.05). *p < 0.05. Detailed results of the analysis are shown in SI Table S7. (B) RUN-89 protects against polyQ-mediated toxicity in an NFE2L1-dependent manner. HCT116 parental cells (WT) and two independent DDI2 knockout clones (KO 04 and KO 11), in which NFE2L1 activation is impaired, were transiently transfected with plasmids encoding non-aggregating EGFP-HttQ23 or aggregation-prone EGFP-HttQ74. Cells were treated with 1 or 3 μM RUN-89 for 48 hours, and viability was measured using the alamarBlue assay. […] Data are shown as the Geomean ± GeoSD from four independent biological replicates (n = 4). […] (C left) The protective effect of RUN compounds was assessed by rotenone-induced α-synuclein proteotoxicity in SH-SY5Y cells, which mimics the PD-like phenotype. […]
A second stress assay was performed using rotenone, a mitochondrial complex I inhibitor. […] After 4 hours, rotenone (1.125 μM) was added and one day later the viability of the cells was measured. […]

[2] = test system: EGFP-HttQ74 aggregates in U2OS cells; test: Analysis of polyQ (EGFP-HttQ74) aggregation in U2OS cells; format: cell-based; conditions: U2OS EGFP-HttQ74, 5 μM, 24 h, with BOC-D-FMK
Description: Considering these earlier findings, we assessed the impact of the most promising compound, RUN-89, on protein aggregate formation in cells. U2OS cells were transfected with the EGFP-HttQ74 plasmid, a model for polyglutamine (polyQ) aggregation, and then treated with the caspase inhibitor BOC-D-FMK in combination with either 5 μM RUN compounds or a vehicle control for 24 hours prior to the microscopy analysis (Fig. 4). […] A decrease in aggregate size leads to an increase in their number, as the formation of large aggregates is prevented. Instead, multiple smaller aggregates are formed, which, according to our assumption, could be more easily degraded (Fig. 4B). […] Representative fluorescence microscopy images of U2OS cells expressing EGFP-HttQ74 treated with RUN-89 are shown in Fig. 4D, highlighting the difference between RUN-89-treated and vehicle-treated cells.
U2OS cells expressing EGFP-HttQ74 were treated for 24 hours with either the caspase inhibitor BOC-D-FMK, 5 μM RUN compounds, or DMSO (negative control). In total, cells from three independent experiments were analyzed (n = 3) and from every well 10 areas were screened. […] The volume value was measured in voxels. […] (D) Fluorescence microscopy images represent U2OS cells overexpressing EGFP-HttQ74 after treatment with RUN-89 and DMSO for 24 h. […]
instructions. […] Data were expressed as a fold change relative to the corresponding DMSO control. […]

SMILES: COc1ccc(/C=C2\CC(NC(=O)C3CCCC3)C/C(=C\c3ccc(OC)c(OC)c3)C2=O)cc1OC (centres unmarked) [RUN-89]
- Cell viability after rotenone treatment [1]: up to 70%
- Number of aggregates per cell [2]: 4.545
